± gives the expanded uncertainty stated by the source.
Experiments:
[1] = refractive index (Na D-line) (dimensionless); conditions: 298.2 K; 101.33 kPa; Liquid; Standard Abbe refractometry
[2] = 298.2 K; 101.33 kPa; Liquid; Pycnometric method

SMILES	refractive index [1]	mass density [2]
CCCCn1cc[n+](C)c1.COCCOCCOS(=O)(=O)[O-] [1-butyl-3-methylimidazolium 2-(2-methoxyethoxy)ethyl sulfate]	1.48 ± 0.001	1170 ± 10 kg/m3
CCC(=O)O [propanoic acid]	1.382 ± 0.001	992 ± 1 kg/m3
CC(O)c1ccccc1 (stereo unspecified) [1-phenylethanol]	1.5225 ± 0.0008	1010 ± 2 kg/m3
CCn1cc[n+](C)c1.Cc1ccc(S(=O)(=O)[O-])cc1 [1-ethyl-3-methylimidazolium 4-methylbenzenesulfonate]	1.538 ± 0.001	1210 ± 10 kg/m3

The remaining lines, values ahead:

refractive index [1]	mass density [2]	SMILES
1.402 ± 0.001	919 ± 2 kg/m3	C=COC(=O)CC [vinyl propanoate]
1.4865 ± 0.0008	1007 ± 2 kg/m3	CCC(=O)OC(C)c1ccccc1 (stereo unspecified) [1-phenylethyl propionate]
1.41 ± 0.001	1380 ± 10 kg/m3	CCCCn1cc[n+](C)c1.F[P-](F)(F)(F)(F)F [1-butyl-3-methylimidazolium hexafluorophosphate]
1.422 ± 0.001	1200 ± 10 kg/m3	CCCCn1cc[n+](C)c1.F[B-](F)(F)F [1-butyl-3-methylimidazolium tetrafluoroborate]
